Measurements from patent US20040009568A1, “Catalytic domains of the human hepatocyte growth factor receptor tyrosine kinase, and materials and methods for identification of inhibitors thereof” (priority 2001, published 2004).

Columns and labels:
Format in all cases: biochemical
[1] = biological target: T1, phosphorylated HGFR (pHGFR) (Homo sapiens, UniProt P08581); assay: Coupled enzymatic (PK/LDH) kinase assay, phospho-HGFR
T1 construct: The cDNA corresponding to residues 1051-1349 of the HGFR kinase catalytic domain (HGFRkd) was cloned into a pFastBac plasmid; added N-terminal methionine (start codon of the NcoI site) (N); made in house; host or cells: Sf9 insect cells, recombinant baculovirus; then autophosphorylated in vitro with MgATP
T1 sequence (P08581 1051-1349): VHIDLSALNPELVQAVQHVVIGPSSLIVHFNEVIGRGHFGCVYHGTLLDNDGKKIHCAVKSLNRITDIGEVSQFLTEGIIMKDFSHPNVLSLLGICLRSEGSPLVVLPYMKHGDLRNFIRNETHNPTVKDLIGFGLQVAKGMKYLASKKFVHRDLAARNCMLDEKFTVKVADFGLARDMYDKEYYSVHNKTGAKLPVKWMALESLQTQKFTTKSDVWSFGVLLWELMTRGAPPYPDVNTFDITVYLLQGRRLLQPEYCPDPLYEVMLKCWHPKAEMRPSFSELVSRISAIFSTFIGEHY
Procedure: (§1) A coupled enzymatic assay format was used to measure both HGFR and phospho-HGFR(PHGFR) activities. The kinase-catalyzed production of ADP from ATP that accompanies phosphate transfer to the random copolymer poly(Glu4Tyr) or peptide substrate was coupled to the oxidation of NADH through the activities of pyruvate kinase (PK) and lactate dehydrogenase (LDH). NADH conversion to NAD^+ was monitored by the decrease in absorbance at 340 nm (ε=6.22 cm^−1 mM^−1) using a Beckman DU650 spectrophotometer. A typical reaction solution contained 1 mM phosphoenolpyruvate, 0.24 mM NADH, 40 mM MgCl2, 5 mM DTT, poly(Glu4Tyr), ATP, 15 units/mL PK, 15 units/mL LDH in 100 mM HEPES, pH 7.5. ATP was varied from 0.5 to 2000 μM and poly(Glu4Tyr) was varied from 0.5 to 20 mg/mL. In addition, Met2 peptide (0-4 mM) could be used instead of poly(Glu4Tyr). Assays were initiated with the addition of 12 nM phosphorylated HGFR or 125 nM unphosphorylated HGFR. Inhibition studies were performed as described above with following exceptions: 0.075 mM ATP (PHGFR) and 0.375 mM ATP (HGFR). Data was fit to the equation for competitive inhibition by the method of nonlinear least squares (KaleidaGraph).
(§2) The kinetic consequences of the autophosphorylation were investigated. HGFR and pHGFR activities were evaluated in two distinct and complementing assay formats. […] A coupled, enzymatic assay format (CE format) was used to measure ADP production. HGFR-catalyzed production of ADP from ATP that accompanied phosphate transfer to the random copolymer poly(Glu4Tyr) was coupled to the oxidation of NADH through the sequential activities of pyruvate kinase (PK) and lactate dehydrogenase (LDH). NADH conversion to NAD^+ was monitored spectrophotometrically by the decrease in absorbance at 340 nm (ε=6.22 cm^−1 mM^−1). A second assay format was used to measure the production of [^32P]-labeled phospho-protein (dephosphorylated α-casein). Dephosphorylated α-casein is the substrate for HGFR […] in a glass fiber filterplate assay format. […]
(§3) Inhibition of HGFR and pHGFR were monitored in two distinct assay formats to insure valid results. The coupled, enzymatic format (CE) was a continuous assay that measured ADP production through the sequential action of two standard coupling enzymes (pyruvate kinase and lactate dehydrogenase). The radioactive assay format was a discontinuous assay that measured phospho-protein production directly. […]
(§4) The coupled enzymatic analysis of HGFR processing of ATP and poly(Glu4Tyr) were measured at 37° C. Variable substrate concentration was measured at a fixed saturating concentration of the other substrate.

[2] = biological target: T2, pHGFR (Homo sapiens, UniProt P08581); assay: Radioactive glass fiber filterplate assay (32P transfer to dephosphorylated α-casein)
T2 construct: The cDNA corresponding to residues 1051-1349 of the HGFR kinase catalytic domain (HGFRkd) was cloned into a pFastBac plasmid; added N-terminal methionine (start codon of the NcoI site) (N); made in house; host or cells: Sf9 insect cells, recombinant baculovirus; then autophosphorylated in vitro with MgATP
T2 sequence (P08581 1051-1349): as above
Procedure: as §2, §3

[3] = biological target: T3, unphosphorylated HGFR (Homo sapiens, UniProt P08581); assay: Coupled enzymatic (PK/LDH) kinase assay, unphosphorylated HGFR
T3 construct: The cDNA corresponding to residues 1051-1349 of the HGFR kinase catalytic domain (HGFRkd) was cloned into a pFastBac plasmid; added N-terminal methionine (start codon of the NcoI site) (N); made in house; host or cells: Sf9 insect cells, recombinant baculovirus (pFastBac-NcoI)
T3 sequence (P08581 1051-1349): as above
Procedure: as §1
The kinetic consequences of the autophosphorylation were investigated. HGFR and pHGFR activities were evaluated in two distinct and complementing assay formats. […] NADH conversion to NAD^+ was monitored spectrophotometrically by the decrease in absorbance at 340 nm (ε=6.22 cm^−1 mM^−1). […]
as §3, §4

[4] = coupled enzymatic analysis, 37° C., other substrate fixed saturating

Compound	kcat, Phospho-HGFR [1, 4]	Km ([1]; coupled enzymatic analysis, 37° C., other substrate fixed saturating, read-out: Km, Phospho-HGFR)	Km ([2]; radioactive filtermate format, dephosphorylated α-casein phosphoacceptor, read-out: Km for ATP (radioactive filtermate format))	Km [3, 4]	kcat, Unphosphorylated HGFR [3, 4]	mechanism of pHGFR inhibition (double reciprocal analysis) ([1]; CE assay, ATP 25-3200 μM, Compound 1 0-1200 nM, pHGFR 25 nM, Met2 peptide 0.5 mM)	Ki ([1]; coupled enzymatic format, 0.075 mM ATP, data fit to equation for competitive inhibition, read-out: inhibition (pHGFR/CE format))	Ki ([2]; radioactive filterplate format, 27.5 nM pHGFR, 0.075 mM ATP, RT, 30 min, read-out: inhibition (pHGFR/radioactive format))	Ki ([3]; coupled enzymatic format, 0.375 mM ATP, data fit to equation for competitive inhibition, read-out: inhibition (HGFR/CE format))
Nc1ncnc2c1ncn2[C@@H]1O[C@H](COP(=O)(O)OP(=O)([O-])OP(=O)([O-])O)[C@@H](O)[C@H]1O.[Mg+2] [MgATP, ATP]	31.3 ± 2.1 s⁻¹	73.7 ± 2.8 µM	78.6 ± 12.1 µM	373 ± 61 µM	1.02 ± 0.013 s⁻¹	–	–	–	–
O=C1Nc2ccc3ncsc3c2/C1=C/Nc1ccc(S(=O)(=O)NCCOCCO)cc1 [Compound 1, 4-[[(Z)-(6,7-dihydro-7-oxo-8H-pyrrolo[2,3-g]benzothiazol-8-ylidene)methyl]amino]-N-[2-(2-hydroxyethoxy)ethyl]-(9CI)]	–	–	–	–	–	ATP-competitive inhibitor	381 ± 19 nM	128 ± 17 nM	500 ± 30 nM
